The values that follow come from ChEMBL document CHEMBL2216752, “Carnitine palmitoyltransferase (CPT) modulators: a medicinal chemistry perspective on 35 years of research” (J Med Chem, 2011).

Experiment [1] is filed under the species Rattus norvegicus. In words: Inhibition of CPT1A activity in 48 hrs fasted rat. Format: functional.
For experiment [2], the species on record is Rattus norvegicus. In words: Reduction in ketone bodies in 48 hrs fasted rat. In kind it is functional. Further details: scale not given: the % may be the effect or the level left.
Experiment [3] in a line: Inhibition of rat FAO.
The nature of experiment [4]: Inhibition of human FAO.
Experiment [5] has as its target T1, Carnitine O-palmitoyltransferase 2, mitochondrial (Homo sapiens, UniProt P23786).
T1 sequence (P23786 whole entry): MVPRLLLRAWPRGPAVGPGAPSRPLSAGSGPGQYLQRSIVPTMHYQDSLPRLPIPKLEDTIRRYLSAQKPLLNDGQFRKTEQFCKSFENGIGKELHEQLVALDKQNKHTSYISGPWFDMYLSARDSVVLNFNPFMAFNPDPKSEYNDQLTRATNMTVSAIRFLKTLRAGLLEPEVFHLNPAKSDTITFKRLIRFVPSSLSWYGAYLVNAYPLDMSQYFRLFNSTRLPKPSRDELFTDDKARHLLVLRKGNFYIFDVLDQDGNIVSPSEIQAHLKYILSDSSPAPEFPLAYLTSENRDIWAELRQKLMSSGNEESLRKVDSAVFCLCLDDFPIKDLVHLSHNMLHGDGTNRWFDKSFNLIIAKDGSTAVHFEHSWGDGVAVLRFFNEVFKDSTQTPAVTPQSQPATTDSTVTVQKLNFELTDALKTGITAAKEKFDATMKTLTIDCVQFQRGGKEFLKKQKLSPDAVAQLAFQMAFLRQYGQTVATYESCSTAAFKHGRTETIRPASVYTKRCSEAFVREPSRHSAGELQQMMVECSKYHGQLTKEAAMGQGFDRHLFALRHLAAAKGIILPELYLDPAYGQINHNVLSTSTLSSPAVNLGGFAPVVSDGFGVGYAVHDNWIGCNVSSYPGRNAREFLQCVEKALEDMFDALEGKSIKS
Kind of experiment: Inhibition of human CPT2.

Experiment [6] addresses T2, Carnitine O-palmitoyltransferase 1, muscle isoform (Homo sapiens, UniProt Q92523).
T2 sequence (Q92523 whole entry): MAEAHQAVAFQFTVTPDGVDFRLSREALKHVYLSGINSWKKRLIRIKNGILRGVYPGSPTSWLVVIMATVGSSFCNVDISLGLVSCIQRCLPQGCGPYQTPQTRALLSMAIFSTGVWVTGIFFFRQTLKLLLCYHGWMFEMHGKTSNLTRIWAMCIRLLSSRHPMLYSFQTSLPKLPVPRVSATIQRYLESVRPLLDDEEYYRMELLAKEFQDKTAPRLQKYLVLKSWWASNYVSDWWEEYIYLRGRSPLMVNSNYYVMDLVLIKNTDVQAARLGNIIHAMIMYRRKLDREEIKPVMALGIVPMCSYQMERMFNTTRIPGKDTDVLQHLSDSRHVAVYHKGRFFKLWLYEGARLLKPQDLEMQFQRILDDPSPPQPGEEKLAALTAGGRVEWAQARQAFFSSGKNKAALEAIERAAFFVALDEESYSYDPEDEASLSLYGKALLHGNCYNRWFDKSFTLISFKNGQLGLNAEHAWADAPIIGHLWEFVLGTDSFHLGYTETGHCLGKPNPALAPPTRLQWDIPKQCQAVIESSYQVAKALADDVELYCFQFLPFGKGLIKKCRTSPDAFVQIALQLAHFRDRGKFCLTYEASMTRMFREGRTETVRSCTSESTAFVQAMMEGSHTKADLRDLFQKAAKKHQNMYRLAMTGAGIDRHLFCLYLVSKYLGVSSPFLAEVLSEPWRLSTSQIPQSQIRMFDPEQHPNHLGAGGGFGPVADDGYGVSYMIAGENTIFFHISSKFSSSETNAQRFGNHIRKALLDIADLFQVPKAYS
Kind of experiment: Inhibition of CPT1B in liver mitochondria.

In experiment [7] the target is T2, Carnitine O-palmitoyltransferase 1, muscle isoform. Kind of experiment: Inhibition of CPT1B in heart mitochondria.
Experiment [8] deals with T3, Carnitine O-palmitoyltransferase 2, mitochondrial (Rattus norvegicus, UniProt P18886).
T3 sequence (P18886 whole entry): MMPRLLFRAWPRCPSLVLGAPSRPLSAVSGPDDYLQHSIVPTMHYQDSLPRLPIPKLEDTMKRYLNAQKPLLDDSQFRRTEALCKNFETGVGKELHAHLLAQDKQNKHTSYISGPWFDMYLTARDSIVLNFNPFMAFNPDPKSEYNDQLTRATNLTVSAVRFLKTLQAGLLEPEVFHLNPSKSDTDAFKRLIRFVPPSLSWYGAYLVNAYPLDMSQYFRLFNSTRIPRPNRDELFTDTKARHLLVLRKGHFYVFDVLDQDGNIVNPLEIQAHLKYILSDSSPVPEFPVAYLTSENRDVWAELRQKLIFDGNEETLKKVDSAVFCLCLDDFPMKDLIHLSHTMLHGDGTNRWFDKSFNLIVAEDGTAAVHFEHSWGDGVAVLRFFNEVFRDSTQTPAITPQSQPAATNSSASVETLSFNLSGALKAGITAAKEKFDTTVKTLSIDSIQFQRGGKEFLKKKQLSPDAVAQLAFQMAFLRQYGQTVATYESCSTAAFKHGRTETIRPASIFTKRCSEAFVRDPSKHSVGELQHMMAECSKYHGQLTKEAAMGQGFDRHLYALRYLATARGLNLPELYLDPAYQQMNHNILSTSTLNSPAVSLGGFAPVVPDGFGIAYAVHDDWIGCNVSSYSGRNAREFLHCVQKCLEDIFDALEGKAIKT
Kind of experiment: Inhibition of rat CPT2.

The target of experiment [9] is T2, Carnitine O-palmitoyltransferase 1, muscle isoform. Kind of experiment: Inhibition of human CPT1B.
Experiment [10] deals with T4, Carnitine O-palmitoyltransferase 1, liver isoform (Homo sapiens, UniProt P50416).
T4 sequence (P50416 whole entry): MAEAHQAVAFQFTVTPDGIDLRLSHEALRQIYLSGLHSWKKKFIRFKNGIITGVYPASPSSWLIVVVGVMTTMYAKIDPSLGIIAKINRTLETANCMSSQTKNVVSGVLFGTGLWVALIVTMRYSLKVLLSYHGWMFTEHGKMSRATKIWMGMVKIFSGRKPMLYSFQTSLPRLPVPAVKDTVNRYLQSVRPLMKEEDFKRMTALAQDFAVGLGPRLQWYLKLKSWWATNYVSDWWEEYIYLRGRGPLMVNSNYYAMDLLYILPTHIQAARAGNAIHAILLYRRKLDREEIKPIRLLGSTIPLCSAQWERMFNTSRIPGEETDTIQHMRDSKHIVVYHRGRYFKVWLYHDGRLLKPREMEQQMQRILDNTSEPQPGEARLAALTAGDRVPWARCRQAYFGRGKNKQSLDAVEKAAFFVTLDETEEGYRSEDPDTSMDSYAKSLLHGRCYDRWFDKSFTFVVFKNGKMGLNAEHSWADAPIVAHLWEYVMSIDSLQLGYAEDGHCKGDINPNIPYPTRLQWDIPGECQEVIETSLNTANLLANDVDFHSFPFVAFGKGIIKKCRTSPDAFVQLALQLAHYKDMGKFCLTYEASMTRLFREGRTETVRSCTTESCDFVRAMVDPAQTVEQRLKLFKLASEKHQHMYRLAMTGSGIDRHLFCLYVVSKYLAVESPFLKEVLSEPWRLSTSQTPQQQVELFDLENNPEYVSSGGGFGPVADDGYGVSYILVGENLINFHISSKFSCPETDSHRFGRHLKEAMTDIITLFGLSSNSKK
In words: Inhibition of human CPT1A.

For experiment [11], the target named is T1, Carnitine O-palmitoyltransferase 2, mitochondrial. In words: Competitive inhibition of CPT2 in liver mitochondria using carnitine.
Experiment [12] shares this target. In words: Competitive inhibition of CPT2 in heart mitochondria using carnitine.
Experiment [13] has the same target. In words: Competitive inhibition of CPT2.
The test system of experiment [14] is Mus musculus. In words: Induction of weight loss in DIO mouse at 15 mg/kg, ip administered single dose measured 20 hrs post dose (reference value: 2 %). As to conditions: route intraperitoneal. Format: functional.
Experiment [15] relates to Mus musculus. Kind of experiment: Increase in energy production in DIO mouse at 15 mg/kg, ip administered single dose. Format: functional. To be noted: route intraperitoneal.
Experiment [16] has as its target Carnitine O-palmitoyltransferase 1, liver isoform (Rattus norvegicus) (UniProt P32198). Kind of experiment: Increase in CPT1 activity in rat hepatocytes using [3H]carnitine by radiometric assay. In kind it is cell-based. To be noted: Hepatocyte.
Another experiment deals with Hepatocyte. In words: Increase in palmitate oxidation rat hepatocytes a at 80 uM. Format: functional.
Experiment [17] deals with T5, Carnitine O-palmitoyltransferase 1, liver isoform (Homo sapiens) (UniProt P50416).
T5 sequence (whole entry): T4 sequence (P50416 whole entry)
In words: Increase in liver CPT1 activity expressed in yeast mitochondrial extracts.

In experiment [18] the target is Carnitine O-palmitoyltransferase 1, muscle isoform (Homo sapiens) (UniProt Q92523). In words: Increase in muscle CPT1 activity expressed in yeast mitochondrial extracts. As to conditions: Muscle tissue.
The test system of experiment [19] is Rattus norvegicus. Kind of experiment: Reduction in KB level in Sprague-Dawley rat at 0.44 mg/kg, po. Format: functional. Details: scale not given: the % may be the effect or the level left.
The test system of experiment [20] is Rattus norvegicus. Kind of experiment: Reduction in glucose level in Sprague-Dawley rat at 88 mg/kg, po. Format: functional. Details: scale not given: the % may be the effect or the level left.
A short description of experiment [21]: Inhibition of carnitine palmitoyltransferase in rat heart mitochondria assessed as conversion of [14C]palmitic acid to [14C]palmitoylcarnitine by radiometric assay.
Experiment [22] in a line: Inhibition of carnitine palmitoyltransferase in rat liver mitochondria assessed as conversion of [14C]palmitic acid to [14C]palmitoylcarnitine by radiometric assay.
A short description of experiment [23]: Inhibition of carnitine palmitoyltransferase in 18 hr fasted rat hepatocytes. Format: cell-based. To be noted: hepatocyte.
Experiment [24] in a line: Inhibition of carnitine palmitoyltransferase in 18 hr fasted rat liver homogenates. In kind it is tissue-based.
The nature of experiment [25]: Competitive inhibition of carnitine palmitoyltransferase using palmitoyl-CoA.

SMILES strings stand for the structures. Where only a bound is given, the exact number is not on record here.

Sequence of Carnitine O-palmitoyltransferase 1, liver isoform (Rattus norvegicus) (P32198 whole entry, canonical isoform): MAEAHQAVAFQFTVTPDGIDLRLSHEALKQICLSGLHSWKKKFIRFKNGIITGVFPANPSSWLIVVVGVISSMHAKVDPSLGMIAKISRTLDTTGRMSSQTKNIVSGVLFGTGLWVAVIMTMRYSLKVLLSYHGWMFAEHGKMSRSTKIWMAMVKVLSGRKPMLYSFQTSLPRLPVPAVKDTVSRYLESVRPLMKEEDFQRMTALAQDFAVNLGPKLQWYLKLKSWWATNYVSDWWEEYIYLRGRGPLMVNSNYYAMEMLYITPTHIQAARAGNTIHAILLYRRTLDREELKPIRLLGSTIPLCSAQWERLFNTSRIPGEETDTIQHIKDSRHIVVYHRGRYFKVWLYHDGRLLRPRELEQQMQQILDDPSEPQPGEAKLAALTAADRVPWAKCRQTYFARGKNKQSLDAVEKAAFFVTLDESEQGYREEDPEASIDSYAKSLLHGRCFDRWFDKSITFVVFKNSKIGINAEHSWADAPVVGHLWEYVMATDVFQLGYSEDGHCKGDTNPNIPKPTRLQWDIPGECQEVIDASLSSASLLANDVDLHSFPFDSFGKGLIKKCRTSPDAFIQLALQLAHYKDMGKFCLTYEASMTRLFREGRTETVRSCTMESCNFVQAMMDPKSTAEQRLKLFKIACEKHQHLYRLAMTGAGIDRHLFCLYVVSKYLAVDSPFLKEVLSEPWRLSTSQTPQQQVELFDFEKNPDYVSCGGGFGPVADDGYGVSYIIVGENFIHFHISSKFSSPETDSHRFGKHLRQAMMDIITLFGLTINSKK

Regarding `CCCCCCCCCCCCCC[C@]1(C(=O)OC)CO1` (racemic), the “inhibition (INH)” value in the experiment listed under Rattus norvegicus [1] is reported as 90%. This compound registered an Activity in the experiment filed under Rattus norvegicus [2] of 90%.
Broadly, the IC50 is the concentration at which inhibition is half-maximal. With `O=C(O)C(=O)c1ccc(O)cc1`, the IC50 in [3] is over 100 µM; in experiment [4] it was 33.3 µM; in experiment [5], over 100 µM; in experiment [6], 510 µM; in [7] it was 11 µM; in [8], over 100 µM. For the same compound, the values for the IC50 in [9] and in experiment [10] were 60.3 µM and over 100 µM, respectively.
The term Ki denotes a dissociation constant, usually derived from enzyme kinetics or from competition with a known ligand. For the compound `CCCCCCCCCCCCCCC[C@@]1(O)C[N+](C)(C)C[C@@H](CC(=O)[O-])O1` (racemic), the Ki was 4.2 µM in [11], 2.8 µM in experiment [12] and 0.16 µM in experiment [13].
With `C=C1C(=O)O[C@H](CCCCCCCC)[C@H]1C(=O)O`, the IC50 in experiment [3] was over 100 µM; in [4], 21.9 µM. For the same compound, the Activity came out at 4.4% in the experiment with Mus musculus [14]; 32.9% with Mus musculus [15]; 250% in [16]; 750% in the experiment with Hepatocyte; 20% in experiment [17]; 20% in experiment [18].
For `CCCCCCCCCCCCCCOP(=O)([O-])O[C@H](CC(=O)O)C[N+](C)(C)C`, the Activity in the experiment with Rattus norvegicus [19] was determined as 77%; in the experiment on Rattus norvegicus [20], 20%. For the same compound, the IC50 turned out to be 62 µM in [21], 17.4 µM in experiment [22], 3 µM in [23] and 36 µM in [24]. In addition, in experiment [25], the affinity corresponds to a Ki of 3.6 µM.
